pIC50: −log10 of the molar value.
Tests used:
HeLa = assay: Cytotoxicity against human HeLa cells assessed as inhibition of cell viability by MTT assay; assay type: functional, cell-based
A549 = assay: Cytotoxicity against human A549 cells assessed as inhibition of cell viability by MTT assay; assay type: functional, cell-based

Compound | pIC50 (HeLa) | pIC50 (A549)
CS[C@@]12Cc3c([nH]c4ccccc34)[C@@](CO)(NC1=O)C(=O)N2 | 4.60 | 4.60
CNC(=O)[C@@]12C[C@]3(n4cc(C[C@@]56SSSS[C@@](CO)(C(=O)N5C)N(C)C6=O)c5ccccc54)c4ccccc4N[C@@H]3N1C(=O)C(=O)N[C@H]2C | 5.80 | 5.72
CN1C(=O)[C@]2(Cc3c[nH]c4ccccc34)SSSS[C@@]1(CO)C(=O)N2C | 5.72 | 5.66
CS[C@]1(CO)NC(=O)[C@](Cc2c[nH]c3ccccc23)(SC)NC1=O [CHETOSEMINUDIN C] | 4.48 | 4.52
CN1C(=O)[C@]2(Cc3cn([C@]45C[C@@]67SS[C@@](CO)(C(=O)N6[C@H]4Nc4ccccc45)N(C)C7=O)c4ccccc34)SS[C@@]1(CO)C(=O)N2C [CHETOMIN] | 5.62 | 5.46
CS[C@@]1(CO)C(=O)N/C(=C\c2c[nH]c3ccccc23)C(=O)N1C | 4.52 | 4.52

— ChEMBL document CHEMBL5532716, “UPLC-Q-TOF-MS/MS-Based Targeted Discovery of Chetomin Analogues from Chaetomium cochliodes” (J Nat Prod, 2024)
